The values below come from patent publication US20250074891A1 (Anaxis Pharma Pty Ltd., priority 2021, published 2025).

pIC50, pKd: −log10 of the molar value.

The target in one experiment is MLKL (full length) (Homo sapiens (Human), UniProt Q8NB16). Description: KINOMEscan binding assay, MLKL (full length). Conditions: Table 36. As to the method:
Kinase assays. For most assays, kinase-tagged T7 phage strains were grown in parallel in 24-well blocks in an E. coli host derived from the BL21 strain. E. coli were grown to log-phase and infected with T7 phage from a frozen stock (multiplicity of infection=0.4) and incubated with shaking at 32° C. until lysis (90-150 minutes).
The Hill Slope was set to −1.

Experiment [1] relates to U937 human histiocytic leukemia cell line. Description: Cellular assay: inhibition of TSQ induced necroptosis (CellTitre-Glo). The note with it: Homo sapiens, U-937; U937 cells, TSQ cocktail, 48 hours, Table 38; read-out: Inhibition of TSQ-induced necroptosis (IC50 cell-based assay). As to the method: […] ASSAY: Screening compounds for inhibition of TSQ induced necroptosis, 384 well plate format.
Cell Line ID: U937 human histiocytic leukemia cell line.
Cell Concentration (cells/well): Final cell density is 20,000 cells per well.
Cell growth medium: HT-RPMI medium+7.4% Fetal Bovine Serum (FBS). Cells are cultured in Corning 150 cm^z tissue culture flasks with vented caps at 37° C./5% CO2.
Incubation: Plates were incubated at 37° C./5% CO2 in a humidified incubator for 48 hours following addition of compounds and death stimuli (TSQ cocktail).
Compound concentration: 36 μM starting concentration, 1:3 dilution, 10 point
DMSO final concentration (% v/v): 0.3%.
Compounds in TSQ cocktail (T: TNF; S: Smac mimetic; Q: Q-VD-OPh) and their final concentrations: • hTNF-Fc (100 ng/ml)—produced by standard procedures as shown in Bossen et al., J Biol Chem, 2006, 281(20), 13964-13971. • Compound A (500 nM)—Smac mimetic, Tetralogic and SYNthesis med chem • Q-VD-OPh (10 μM)—MP Biomedicals
The cellular assay was carried out according to the following steps: • 1. Each well was prepared by sequential addition of: • a. DMSO (control; columns 1-2 and 23-24) or compound in DMSO—addition was performed using acoustic transfer of nl volumes of stock compound to give final test concentrations of 36, 12, 4, 1.3, 0.44, 0.148, 0.049, 0.016, 0.005 and 0.002 μM. All wells were backfilled with DMSO to a final total volume in the well of 100 nl. • b. Following compound/DMSO addition in step (a), 40 μL of cell suspension (5×10^5 cells/mL) was added to provide a final cell concentration of 20,000 cells per well, and • c. Following cell addition in step (b), 10 μL of 5×TSQ cocktail (except to positive controls; […]) was added to each well. • 2. After 48 hours, plate was removed from the 37° C. incubator and equilibrated to room temperature for 45 minutes. • 3. 15 μL of room temperature CellTitre-Glo2™ (Promega™) was added to each well. • 4. Shook plates for 2 minutes (˜600 rpm) and incubated at room temperature for 15 minutes to allow signal to stabilise. • 5. Read luminescence readout on a plate reader.
Percent viability was calculated for each compound according to equation (2):
[formula] • wherein • RawData is the readout of any cell containing a compound of the invention • TA is the total activity provided by the luminescence readout from DMSO only wells (columns 2 and 24)=100% viability • NSA is the non-specific activity provided by DMSO+TSQ wells (columns 1 and 23)=0% viability
Curve fitting: 10-point titration curves are fitted with the 4-parameter logistic nonlinear regression model and the IC50 reported is the inflection point of the curve.
Analysis: Data was loaded into Dotmatics™ and visualised using the Tibco® Spotfire™ software. 10 points titration curves were fitted with the 4-parameter logistic nonlinear regression model and the IC50 reported reflect the inflection point of the curve for curve fitting.
Assay involving the TSQ cocktail (T: TNF; S: Smac mimetic; Q: Q-VD-OPh): TSQ treatment ensures that cells specifically undergo necroptotic cell death. TNF activates the TNF receptor, Smac mimetic directs the signal away from proinflammatory signaling and toward the RIP1/RIP3-mediated cell death pathways, and Q-VD-OPh ensures that the apoptotic response is blocked leaving only the programmed necrosis response. The compounds' activity (solution in DMSO) tested in this TSQ-induced assay was evaluated by determining the number of viable cells in culture by measuring the amount of ATP present as measured by CelltiterGlo.

The test system of the next experiment is U937 cells. Description: Counter screen: cell viability without TSQ cocktail (off-target effect). Further details: species or system human. Conditions: Homo sapiens, U-937, Table 38, read-out: Off-target effect (IC50 cell-based assay). As to the method:
Counter screen: In parallel, all compounds were tested for their ability to affect cell viability. The same U937 cells were treated with compound in DMSO without the TSQ cocktail. This counter screen enabled evaluation of off-target effects. In this case, cell viability was measured by CelltiterGlo.

MLKL (full length), sequence (Q8NB16 whole entry): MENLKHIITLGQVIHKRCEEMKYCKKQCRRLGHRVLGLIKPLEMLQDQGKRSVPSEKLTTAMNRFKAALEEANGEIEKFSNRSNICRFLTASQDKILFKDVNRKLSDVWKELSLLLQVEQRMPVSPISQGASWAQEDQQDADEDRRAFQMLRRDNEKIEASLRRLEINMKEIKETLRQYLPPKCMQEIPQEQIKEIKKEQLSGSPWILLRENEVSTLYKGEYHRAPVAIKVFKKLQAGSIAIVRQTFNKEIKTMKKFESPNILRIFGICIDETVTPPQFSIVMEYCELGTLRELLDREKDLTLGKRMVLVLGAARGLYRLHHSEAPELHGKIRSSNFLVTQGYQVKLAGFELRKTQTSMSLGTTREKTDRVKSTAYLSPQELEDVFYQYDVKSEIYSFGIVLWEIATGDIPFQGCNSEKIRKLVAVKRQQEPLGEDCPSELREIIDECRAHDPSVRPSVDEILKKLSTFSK

Consider `CCS(=O)(=O)Nc1ccc(-c2n[nH]c(Nc3ccnc(OCCCCCCCCCCCCCC(=O)N[C@H](C(=O)N4C[C@H](O)C[C@H]4C(=O)NCc4ccc(-c5scnc5C)cc4)C(C)(C)C)c3)c2C(N)=O)cc1` [Compound 1018, 3-(4-ethanesulfonamidophenyl)-5-({2-[(13-{[(2S)-1-[(2S,4R)-4-hydroxy-2-({[4-(4-methyl-1,3-thiazol-5-yl)phenyl]methyl}carbamoyl)pyrrolidin-1-yl]-3,3-dimethyl-1-oxobutan-2-yl]carbamoyl}tridecyl)oxy]pyridin-4-yl}amino)-1H-pyrazole-4-carboxamide], for which, on MLKL (full length), the negative-log Kd (pKd) is 6.00 to 8.00. Moreover, the pIC50 (in experiment [1]; with U937 cells) was less than 5.00 in each case.

Turning to `CCS(=O)(=O)Nc1ccc(-c2n[nH]c(Nc3cnc(OCCCCC(=O)N[C@H](C(=O)N4C[C@H](O)C[C@H]4C(=O)NCc4ccc(-c5scnc5C)cc4)C(C)(C)C)cn3)c2C(N)=O)cc1` [Compound 1022, 3-(4-ethanesulfonamidophenyl)-5-{[5-(4-{[(2S)-1-[(2S,4R)-4-hydroxy-2-({[4-(4-methyl-1,3-thiazol-5-yl)phenyl]methyl}carbamoyl)pyrrolidin-1-yl]-3,3-dimethyl-1-oxobutan-2-yl]carbamoyl}butoxy)pyrazin-2-yl]amino}-1H-pyrazole-4-carboxamide], at MLKL (full length), the pKd is more than 8.00. Moreover, the pIC50 in experiment [1] was more than 6.00; with U937 cells it was less than 5.00.

`Cc1ncsc1-c1ccc(CNC(=O)[C@@H]2C[C@@H](O)CN2C(=O)[C@@H](NC(=O)CCn2ccc(Nc3[nH]nc(-c4ccc(NS(=O)(=O)C(F)F)c(O[C@@H](C)c5ccc(F)cc5)c4)c3C(N)=O)n2)C(C)(C)C)cc1` [Compound 1032, 3-[4-(difluoromethanesulfonamido)-3-[(1S)-1-(4-fluorophenyl)ethoxy]phenyl]-5-{[1-(2-{[(2S)-1-[(2S,4R)-4-hydroxy-2-({[4-(4-methyl-1,3-thiazol-5-yl)phenyl]methyl}carbamoyl)pyrrolidin-1-yl]-3,3-dimethyl-1-oxobutan-2-yl]carbamoyl}ethyl)-1H-pyrazol-3-yl]amino}-1H-pyrazole-4-carboxamide] showed a pKd at MLKL (full length) of more than 8.00. The pIC50 (in experiment [1]; with U937 cells) was less than 5.00 in each case.

`Cc1ncsc1-c1ccc(CNC(=O)[C@@H]2C[C@@H](O)CN2C(=O)[C@@H](NC(=O)CCCn2ccc(Nc3[nH]nc(-c4ccc(NS(=O)(=O)C(F)F)c(O[C@@H](C)c5ccc(F)cc5)c4)c3C(N)=O)n2)C(C)(C)C)cc1` [Compound 1033, 3-[4-(difluoromethanesulfonamido)-3-[(1S)-1-(4-fluorophenyl)ethoxy]phenyl]-5-{[1-(3-{[(2S)-1-[(2S,4R)-4-hydroxy-2-({[4-(4-methyl-1,3-thiazol-5-yl)phenyl]methyl}carbamoyl)pyrrolidin-1-yl]-3,3-dimethyl-1-oxobutan-2-yl]carbamoyl}propyl)-1H-pyrazol-3-yl]amino}-1H-pyrazole-4-carboxamide] showed a pKd on MLKL (full length) of more than 8.00. Also, the results for the pIC50 (in experiment [1]; in the experiment on U937 cells) were 5.00 to 6.00 and less than 5.00, respectively.

As for `Cc1ncsc1-c1ccc(CNC(=O)[C@@H]2C[C@@H](O)CN2C(=O)[C@@H](NC(=O)COCCn2ccc(Nc3[nH]nc(-c4ccc(NS(=O)(=O)C(F)F)c(O[C@@H](C)c5ccc(F)cc5)c4)c3C(N)=O)n2)C(C)(C)C)cc1` [Compound 1036, 3-[4-(difluoromethanesulfonamido)-3-[(1S)-1-(4-fluorophenyl)ethoxy]phenyl]-5-({1-[2-({[(2S)-1-[(2S,4R)-4-hydroxy-2-({[4-(4-methyl-1,3-thiazol-5-yl)phenyl]methyl}carbamoyl)pyrrolidin-1-yl]-3,3-dimethyl-1-oxobutan-2-yl]carbamoyl}methoxy)ethyl]-1H-pyrazol-3-yl}amino)-1H-pyrazole-4-carboxamide], the pKd at MLKL (full length) is more than 8.00. Moreover, the values for the pIC50 (in experiment [1]; in the experiment with U937 cells) were 5.00 to 6.00 and less than 5.00, respectively.

Usually pKd stands for the negative decadic logarithm of the Kd, by convention in mol/L. A lower pKd goes with a high Kd. As usually defined, the pIC50 is the negative decadic logarithm of the IC50, by convention in mol/L.
